Measured values from paper PMC6930659, “Antiprotozoal Activity of Turkish Origanum onites Essential Oil and Its Components” (Molecules, 2019).
In brackets after ≈: the same amount, converted by molar mass.

How the values were obtained:
[1] = test system: T. cruzi Tulahuen strain C2C4; assay: In vitro assay for Trypanosoma cruzi in L-6 cells (β-galactosidase/CPRG); type: cell-based; settings: Trypanosoma cruzi, L6; Tulahuen C2C4 in L-6 cells, 96 h; highest concentration tested 90 μg/mL; means of two determinations ± deviation
Method: Rat skeletal myoblasts (L-6 cells) were seeded in 96 well microtiter plates (2000 cells/well) in 100 μL RPMI 1640 medium with 10% FBS and 2 mM L-glutamine for 24 h. After that, the medium was removed and replaced by 100 μL per well containing 5000 trypomastigote forms of T. cruzi Tulahuen strain C2C4, containing the β-galactosidase (Lac Z) gene. The medium was removed from the wells after 48 h, and replaced with 100 μL fresh medium with or without a serial drug dilution of seven 3-fold dilution steps covering a range from 90 to 0.123 μg/mL. After 96 h of incubation, the plates were inspected under an inverted microscope to assure growth of the controls and sterility, after which the substrate CPRG/Nonidet ([…]) was added to all wells. A color reaction developed within 2–6 h and could be read photometrically at 540 nm. Data were transferred into the graphic program Softmax Pro (Molecular Devices Cooperation, Sunnyvale, CA, USA) and the IC50 values were calculated from the sigmoidal dose response curves. Benznidazole was the reference drug.

T. evansi = test system: T. evansi; parameters: method as in PMID 26773165; settings: cited from earlier work
P. falciparum K1 strain = assay: In vitro assay for Plasmodium falciparum ([3H]-hypoxanthine incorporation); type: cell-based; settings: K1 strain (chloroquine- and pyrimethamine-resistant), erythrocytic stages, means of two determinations ± deviation, read-out: IC50 Plasmodium falciparum
Method: Activity against the erythrocytic stages of P. falciparum was determined using an in vitro modified [^3H]-hypoxanthine incorporation assay, using the chloroquine- and pyrimethamine-resistant K1 strain [68]. Compounds were dissolved in DMSO at 10 mg/mL and further diluted in medium before added to parasite cultures incubated in RPMI 1640 medium without hypoxanthine, supplemented with HEPES (5.94 g/l), NaHCO3 (2.1 g/L), neomycin (100 U/mL), AlbumaxR (5 g/L), and washed human red cells A+ at 2.5% haematocrit (0.3% parasitaemia). Serial drug dilutions of seven 3-fold dilution steps covering a range from 90 to 0.123 μg/mL were prepared. The 96 well plates were incubated in a humidified atmosphere at 37 °C; 4% CO2, 3% O2, 93% N2. After 48 h 50 μL of ^3H-hypoxanthine (=0.5 μCi) was added to each well of the plate. The plates were incubated for a further 24 h under the same conditions. The plates were then harvested with a Betaplate™ cell harvester (Wallac, Zurich, Switzerland), and the red blood cells transferred onto a glass fiber filter then washed with distilled water. The dried filters were inserted into a plastic foil with 10 mL of scintillation fluid, and counted in a Betaplate™ liquid scintillation counter (Wallac, Zurich, Switzerland). […] IC50 values were calculated from the sigmoidal inhibition curves using Microsoft Excel. Chloroquine was used as positive control drug.

[2] = In vitro assay for cytotoxicity on mammalian cells (resazurin); type: cell-based, rat; settings: rat skeletal myoblasts, 72 h; means of two determinations ± deviation; read-out: IC50 Cytotoxicity L6 cells
Method: Assays were performed in 96 well microtiter plates (4 × 10^4 L6 cells/well), each well containing 100 μL of RPMI 1640 medium supplemented with 1% L-glutamine (200 mM) and 10% FBS. L6 cells are a primary cell line derived from rat skeletal myoblasts. Serial drug dilutions of seven 3-fold dilution steps covering a range from 90 to 0.123 μg/mL were prepared. After 72 h of incubation, the plates were inspected under an inverted microscope to assure growth of the controls and sterile conditions. Resazurin solution (10 μL) (12.5 mg resazurin in 100 mL double-distilled water) was then added to each well and the plates incubated for another 2 h. The plates were then read with a Spectramax Gemini XS microplate fluorometer (Molecular Devices Cooperation, Sunnyvale, CA, USA) using an excitation wavelength of 536 nm and an emission wavelength of 588 nm. Data were analyzed using the microplate reader software Softmax Pro (Molecular Devices Cooperation, Sunnyvale, CA, USA). From the sigmoidal inhibition curves, the IC50 values were calculated. Podophyllotoxin was the positive control.

[3] = test system: L. donovani (strain MHOM/ET/67/L82) amastigotes; assay: In vitro assay for Leishmania donovani axenic amastigotes (resazurin); type: cell-based; settings: axenic amastigotes, 72 h, means of two determinations ± deviation, read-out: IC50 Leishmania donovani
Method: Amastigotes of L. donovani (strain MHOM/ET/67/L82) were grown in axenic culture at 37 °C in SM medium at pH 5.4 supplemented with 10% heat-inactivated FBS under an atmosphere of 5% CO2. Culture medium (100 μL) with 10^5 amastigotes from axenic culture with or without a serial drug dilution was seeded in 96 well microtiter plates. Serial drug was prepared covering a range of dilutions from 90 to 0.123 μg/mL. After 72 h of incubation, the plates were inspected under an inverted microscope to assure growth of the controls and sterile conditions. Subsequently, 10 μL resazurin solution (12.5 mg resazurin dissolved in 100 mL double-distilled water) was added to each well and the plates were incubated for another 2 h. The plates were then read with a Spectramax Gemini XS microplate fluorometer (Molecular Devices Cooperation, Sunnyvale, CA, USA) using an excitation wavelength of 536 nm and an emission wavelength of 588 nm. Data were analyzed using the software Softmax Pro (Molecular Devices Cooperation, Sunnyvale, CA, USA). A decrease of fluorescence (=inhibition) was expressed as percentage of the fluorescence of control cultures and plotted against the drug concentrations. From the sigmoidal inhibition curves, the IC50 values were calculated. Miltefosine was used as a reference drug.

[4] = test system: Trypanosoma brucei rhodesiense STIB 900; assay: In vitro assay for Trypanosoma brucei rhodesiense (resazurin); type: cell-based; settings: Trypanosoma brucei; STIB 900 blood stream forms, 72 h; means of two independent determinations ± deviation from the mean; read-out: IC50 Trypanosoma brucei rhodesiense
Method: Trypanosoma brucei rhodesiense STIB 900 strain, isolated in 1982 from a human patient in Tanzania and, after several mouse passages, cloned and adapted to axenic culture conditions, was used in this assay. Minimum essential medium (50 μL) supplemented with 25 mM HEPES, 1 g/L additional glucose, 1% MEM non-essential amino acids (100×), 0.2 mM 2-mercaptoethanol, 1 mM Na-pyruvate, and 15% heat inactivated horse serum was added to each well of a 96 well microtiter plate. Serial drug dilutions of seven 3-fold dilution steps covering a range from 90 to 0.123 μg/mL were prepared, and then 4 × 10^4 blood stream forms of T. b. rhodesiense STIB 900 in 50 μL were added to each well and the plate was incubated at 37 °C under a 5% CO2 atmosphere for 72 h. Resazurin solution (resazurin, 12.5 mg in 100 mL double-distilled water) (10 μL) was then added to each well and incubated for a further 2–4 h. At the end of the assay, the plates were read with a Spectramax Gemini XS microplate fluorometer (Molecular Devices Cooperation, Sunnyvale, CA, USA) using an excitation wavelength of 536 nm and an emission wavelength of 588 nm. Data were analyzed using the microplate reader software Softmax Pro (Molecular Devices Cooperation, Sunnyvale, CA, USA). Melarsoprol was used as standard drug.

SMILES: CC1=CC=C(C(C)C)CC1 [α-Terpinene]
- IC50 [1]: 49.1 ± 7.3 µg/mL (≈ 360 µM)
- animal longevity of T. evansi-infected mice (in words) (T. evansi): extend animal longevity
- IC50 (P. falciparum K1 strain): 3.7 ± 1.5 µg/mL (≈ 27.2 µM)
- IC50 [2]: 84.7 ± 4.3 µg/mL (≈ 622 µM)
- IC50 [3]: 10.5 ± 1.7 µg/mL (≈ 77.1 µM)
- IC50 [4]: 3.1 ± 1.6 µg/mL (≈ 22.8 µM)
